Test results reported in patent US8871934B2, “Fluorene compound and pharmaceutical use thereof” (Japan Tobacco Inc., priority 2008, dated 2014).

Target: human PDHK2 (hPDHK2) (Homo sapiens (Human), UniProt Q15119)
Experiment: Inhibitory action of PDHK activity in vitro (kinase reaction, residual PDH activity measured)
Type: biochemical
Conditions: PDHK inhibitory activity, class symbol of IC50

`O=C(O)c1ccc(-c2ccc3c(c2)C(O)(C(F)(F)F)c2ccccc2-3)cc1Cl` (stereo not shown) [compound 238] and `NC(=O)c1ccc(-c2ccc3c(c2)C(O)(C(F)(F)F)c2ccccc2-3)cc1Cl` (stereo not shown) [compound 239] fall in the same range of IC50: 0.1 to 1 µM for the first, 0.1 to 1 µM for the second.

First: CNC(=O)c1ccc(-c2ccc3c(c2)C(O)(C(F)(F)F)c2ccccc2-3)cc1Cl (stereo not shown) [compound 240]
Second: CN(C)C(=O)c1ccc(-c2ccc3c(c2)C(O)(C(F)(F)F)c2ccccc2-3)cc1Cl (stereo not shown) [compound 241]
The IC50 of the first is higher: 0.1 to 1 µM for the first, less than 0.1 µM for the second. The second is the more potent here.

`O=C(c1cc(-c2cccnc2)c2c(c1)C(O)(C(F)(F)F)c1ccccc1-2)N1CCC1` (stereo not shown) [compound 242] and `OC1(C(F)(F)F)c2ccccc2-c2c(-c3cccnc3)cc(Cl)cc21` (stereo not shown) [compound 243] cannot be ordered by IC50: less than 0.1 µM for the first, less than 0.1 µM for the second.

`OC1(C(F)(F)F)c2ccccc2-c2ccc(C3CC3)cc21` (stereo not shown) [compound 244] and `OC1(C(F)(F)F)c2ccccc2-c2ccc(OCC3CC3)cc21` (stereo not shown) [compound 256] cannot be ordered by IC50: greater than 1 µM for the first, greater than 1 µM for the second.

`OC1(C(F)(F)F)c2ccccc2-c2ccc(-c3cnco3)cc21` (stereo not shown) [compound 245] and `Cc1noc(-c2ccc3c(c2)C(O)(C(F)(F)F)c2ccccc2-3)n1` (stereo not shown) [compound 247] fall in the same range of IC50: 0.1 to 1 µM for the first, 0.1 to 1 µM for the second.

Compared with `CC(=O)N(C)C1CCN(C(=O)c2ccc3c(c2)C(O)(C(F)(F)F)c2ccccc2-3)C1` (stereo not shown) [compound 246], `CC1CCN(c2ccc3c(c2)C(O)(C(F)(F)F)c2ccccc2-3)C1` (stereo not shown) [compound 269] is higher in IC50: 0.1 to 1 µM for the first, greater than 1 µM for the second.

`C/C=C/c1ccc2c(c1)C(O)(C(F)(F)F)c1ccccc1-2` (stereo not shown) [compound 248] and `OC1(C(F)(F)F)c2ccccc2-c2ccc(/C=C/c3ccccc3)cc21` (stereo not shown) [compound 252] cannot be ordered by IC50: greater than 1 µM for the first, greater than 1 µM for the second.

First: CCCCOc1ccc2c(c1)C(O)(C(F)(F)F)c1ccccc1-2 (stereo not shown) [compound 249]
Second: CCCOc1ccc2c(c1)C(O)(C(F)(F)F)c1ccccc1-2 (stereo not shown) [compound 265]
The IC50 of the first is lower: 0.1 to 1 µM for the first, greater than 1 µM for the second.

`Cn1nnc(-c2cccc3c2-c2ccccc2C3(O)C(F)(F)F)n1` (stereo not shown) [compound 250] and `Cn1nnnc1-c1cccc2c1-c1ccccc1C2(O)C(F)(F)F` (stereo not shown) [compound 251] cannot be ordered by IC50: greater than 1 µM for the first, greater than 1 µM for the second.

`OC1(C(F)(F)F)c2ccccc2-c2ccc(OCC3CCCCC3)cc21` (stereo not shown) [compound 253] and `OC1(C(F)(F)F)c2ccccc2-c2ccc(OCC3CCCC3)cc21` (stereo not shown) [compound 254] cannot be ordered by IC50: greater than 1 µM for the first, greater than 1 µM for the second.

`OC1(C(F)(F)F)c2ccccc2-c2ccc(OCC3CCC3)cc21` (stereo not shown) [compound 255] and `OC1(C(F)(F)F)c2ccccc2-c2ccc(OC3CCCC3)cc21` (stereo not shown) [compound 259] cannot be ordered by IC50: greater than 1 µM for the first, greater than 1 µM for the second.

First: CCOC(=O)CCCOc1ccc2c(c1)C(O)(C(F)(F)F)c1ccccc1-2 (stereo not shown) [compound 257]
Second: O=C(O)CCCOc1ccc2c(c1)C(O)(C(F)(F)F)c1ccccc1-2 (stereo not shown) [compound 258]
The IC50 of the first is lower: 0.1 to 1 µM for the first, greater than 1 µM for the second.

`OC1(C(F)(F)F)c2ccccc2-c2ccc(OC3CCCCC3)cc21` (stereo not shown) [compound 260] and `CC(C)COc1ccc2c(c1)C(O)(C(F)(F)F)c1ccccc1-2` (stereo not shown) [compound 264] cannot be ordered by IC50: greater than 1 µM for the first, greater than 1 µM for the second.

`OC1(C(F)(F)F)c2ccccc2-c2ccc(OCc3cccs3)cc21` (stereo not shown) [compound 261] and `OC1(C(F)(F)F)c2ccccc2-c2ccc(OCc3ccccc3)cc21` (stereo not shown) [compound 262] cannot be ordered by IC50: greater than 1 µM for the first, greater than 1 µM for the second.

First: Cn1cc(-c2cccc3c2-c2ccccc2C3(O)C(F)(F)F)cn1 (stereo not shown) [compound 263]
Second: Cc1nnc(-c2cccc3c2-c2ccccc2C3(O)C(F)(F)F)o1 (stereo not shown) [compound 267]
The IC50 of the first is lower: 0.1 to 1 µM for the first, greater than 1 µM for the second.

Compared with `OC1(C(F)(F)F)c2ccccc2-c2ccc(-c3cc(Cl)cc(Cl)c3)cc21` (stereo not shown) [compound 266], `OC1(C(F)(F)F)c2ccccc2-c2c(Br)cc(Cl)cc21` (stereo not shown) [compound 272] is lower in IC50: greater than 1 µM for the first, 0.1 to 1 µM for the second.

Compared with `OC1(C(F)(F)F)c2ccccc2-c2c(C3CC3)cccc21` (stereo not shown) [compound 268], `OCCCCOc1ccc2c(c1)C(O)(C(F)(F)F)c1ccccc1-2` (stereo not shown) [compound 270] is lower in IC50: greater than 1 µM for the first, 0.1 to 1 µM for the second. The second is the more potent here.

In the case of `CC(C)(C)C(=O)N1CCN(c2cc(Cl)c3c(c2)C(O)(C(F)(F)F)c2ccccc2-3)CC1` (stereo not shown) [compound 271], the IC50 is reported as less than 0.1 µM.

Same assay, conditions: read-out: PDHK inhibitory activity IC50

`O=C(O)c1ccc(-c2ccc3c(c2)C(O)(C(F)(F)F)c2ccccc2-3)cc1Cl` (stereo not shown) [compound 238] and `NC(=O)c1ccc(-c2ccc3c(c2)C(O)(C(F)(F)F)c2ccccc2-3)cc1Cl` (stereo not shown) [compound 239] are within 1.5-fold of each other in IC50: 0.252 µM for the first, 0.178 µM for the second.

First: CNC(=O)c1ccc(-c2ccc3c(c2)C(O)(C(F)(F)F)c2ccccc2-3)cc1Cl (stereo not shown) [compound 240]
Second: CN(C)C(=O)c1ccc(-c2ccc3c(c2)C(O)(C(F)(F)F)c2ccccc2-3)cc1Cl (stereo not shown) [compound 241]
The IC50 of the first is 1.5-fold higher: 0.149 µM for the first, 0.098 µM for the second. The second is the more potent here.

`O=C(c1cc(-c2cccnc2)c2c(c1)C(O)(C(F)(F)F)c1ccccc1-2)N1CCC1` (stereo not shown) [compound 242] and `OC1(C(F)(F)F)c2ccccc2-c2c(-c3cccnc3)cc(Cl)cc21` (stereo not shown) [compound 243] are within 1.5-fold of each other in IC50: 0.086 µM for the first, 0.075 µM for the second.

Going from `OC1(C(F)(F)F)c2ccccc2-c2ccc(C3CC3)cc21` (stereo not shown) [compound 244] to `OC1(C(F)(F)F)c2ccccc2-c2ccc(OCC3CC3)cc21` (stereo not shown) [compound 256], the IC50 falls from 2.93 µM to 1 µM (2.9-fold). The second is the more potent here.

Compared with `OC1(C(F)(F)F)c2ccccc2-c2ccc(-c3cnco3)cc21` (stereo not shown) [compound 245], `Cc1noc(-c2ccc3c(c2)C(O)(C(F)(F)F)c2ccccc2-3)n1` (stereo not shown) [compound 247] is 2.9-fold higher in IC50: 0.19 µM for the first, 0.547 µM for the second. The first is the more potent here.

Compared with `CC(=O)N(C)C1CCN(C(=O)c2ccc3c(c2)C(O)(C(F)(F)F)c2ccccc2-3)C1` (stereo not shown) [compound 246], `CC1CCN(c2ccc3c(c2)C(O)(C(F)(F)F)c2ccccc2-3)C1` (stereo not shown) [compound 269] is 1.7-fold higher in IC50: 0.809 µM for the first, 1.34 µM for the second.

`C/C=C/c1ccc2c(c1)C(O)(C(F)(F)F)c1ccccc1-2` (stereo not shown) [compound 248] and `OC1(C(F)(F)F)c2ccccc2-c2ccc(/C=C/c3ccccc3)cc21` (stereo not shown) [compound 252] are within 1.5-fold of each other in IC50: 1.02 µM for the first, 1.27 µM for the second.

Compared with `CCCCOc1ccc2c(c1)C(O)(C(F)(F)F)c1ccccc1-2` (stereo not shown) [compound 249], `CCCOc1ccc2c(c1)C(O)(C(F)(F)F)c1ccccc1-2` (stereo not shown) [compound 265] is 1.8-fold higher in IC50: 0.719 µM for the first, 1.26 µM for the second.

First: Cn1nnc(-c2cccc3c2-c2ccccc2C3(O)C(F)(F)F)n1 (stereo not shown) [compound 250]
Second: Cn1nnnc1-c1cccc2c1-c1ccccc1C2(O)C(F)(F)F (stereo not shown) [compound 251]
The IC50 of the first is lower: 1.61 µM for the first, greater than 10 µM for the second. The first is the more potent here.

Going from `OC1(C(F)(F)F)c2ccccc2-c2ccc(OCC3CCCCC3)cc21` (stereo not shown) [compound 253] to `OC1(C(F)(F)F)c2ccccc2-c2ccc(OCC3CCCC3)cc21` (stereo not shown) [compound 254], the IC50 falls from 1.95 µM to 1.13 µM (1.7-fold). The second is the more potent here.

`OC1(C(F)(F)F)c2ccccc2-c2ccc(OCC3CCC3)cc21` (stereo not shown) [compound 255] and `OC1(C(F)(F)F)c2ccccc2-c2ccc(OC3CCCC3)cc21` (stereo not shown) [compound 259] are within 1.5-fold of each other in IC50: 1.08 µM for the first, 1.39 µM for the second.

Compared with `CCOC(=O)CCCOc1ccc2c(c1)C(O)(C(F)(F)F)c1ccccc1-2` (stereo not shown) [compound 257], `O=C(O)CCCOc1ccc2c(c1)C(O)(C(F)(F)F)c1ccccc1-2` (stereo not shown) [compound 258] is 4.6-fold higher in IC50: 0.567 µM for the first, 2.62 µM for the second. The first is the more potent here.

Going from `OC1(C(F)(F)F)c2ccccc2-c2ccc(OC3CCCCC3)cc21` (stereo not shown) [compound 260] to `CC(C)COc1ccc2c(c1)C(O)(C(F)(F)F)c1ccccc1-2` (stereo not shown) [compound 264], the IC50 falls from 2.81 µM to 1.17 µM (2.4-fold).

`OC1(C(F)(F)F)c2ccccc2-c2ccc(OCc3cccs3)cc21` (stereo not shown) [compound 261] and `OC1(C(F)(F)F)c2ccccc2-c2ccc(OCc3ccccc3)cc21` (stereo not shown) [compound 262] are within 1.5-fold of each other in IC50: 1.4 µM for the first, 1.36 µM for the second.

Going from `Cn1cc(-c2cccc3c2-c2ccccc2C3(O)C(F)(F)F)cn1` (stereo not shown) [compound 263] to `Cc1nnc(-c2cccc3c2-c2ccccc2C3(O)C(F)(F)F)o1` (stereo not shown) [compound 267], the IC50 rises from 0.133 µM to 1.2 µM (9-fold).

Compared with `OC1(C(F)(F)F)c2ccccc2-c2ccc(-c3cc(Cl)cc(Cl)c3)cc21` (stereo not shown) [compound 266], `OC1(C(F)(F)F)c2ccccc2-c2c(Br)cc(Cl)cc21` (stereo not shown) [compound 272] is 4.6-fold lower in IC50: 1.56 µM for the first, 0.342 µM for the second. The second is the more potent here.

Compared with `OC1(C(F)(F)F)c2ccccc2-c2c(C3CC3)cccc21` (stereo not shown) [compound 268], `OCCCCOc1ccc2c(c1)C(O)(C(F)(F)F)c1ccccc1-2` (stereo not shown) [compound 270] is lower in IC50: greater than 10 µM for the first, 0.533 µM for the second. The second is the more potent here.

For `CC(C)(C)C(=O)N1CCN(c2cc(Cl)c3c(c2)C(O)(C(F)(F)F)c2ccccc2-3)CC1` (stereo not shown) [compound 271], the IC50 was 0.056 µM.
